From patent publication US8222448B2, “Processes for production of 2-bromo-2,2-difluoroethanol and 2-(alkylcarbonyloxy)-1, 1-difluoroethanesulfonic acid salt” (priority 2007, dated 2012)

Experiment: Solubility in propylene glycol methyl ether acetate
Type: physicochemical
Settings: 1.0 g added to 100 g of propylene glycol methyl ether acetate, stirring
From the text: 1.0 g of sodium 2-(1′-adamantane)carbonyloxy-1,1-difluoroethanesulfonate synthesized in Example 8 was weighed and added to 100 g of propylene glycol methyl ether acetate, followed by stirring.

In the case of `O=C(OCC(F)(F)S(=O)(=O)[O-])C12CC3CC(CC(C3)C1)C2.c1ccc([S+](c2ccccc2)c2ccccc2)cc1` [Example 8, triphenylsulfonium 2-(1′-adamantane)carbonyloxy-1,1-difluoroethanesulfonate], the Solubility is reported as “completely dissolved”.
